Holding throughout (type): cell-based
One assay has as its target T1, SERT C109A (Rattus norvegicus, UniProt P31652, C109A).
T1 construct: expressed in transfected cells
In words: MTSET inhibition of APP+ uptake in live cells (extracellular pathway cysteine accessibility). The procedure: Figure 3 Reactivity of the extracellular cysteine mutants with MTSET. (A) MTSET concentration-dependent inhibition of APP^+ uptake. The cells stably expressing C109A, Y107C/C109C, or S404C/C109A were incubated for 15 min with indicated concentrations of MTSET. The MTSET concentration giving half-maximal inhibition of APP^+ accumulation in the cells was used to calculate inactivation rate constants as plotted in (B). In this experiment, half-maximal MTSET concentrations were […] for C109A, 0.011 ± 0.006 mM for Y107C/C109A, and 0.0025 ± 0.0008 mM for S404C/C109A, respectively. Representative images of APP^+ uptake by C109A, Y107C/C109A, or S404C/C109A under various MTSET concentrations were shown in Supplemental Figure S1. The experiment was repeated twice with similar results. (B) Rate constants of MTSET inhibition of APP^+ uptake. At the half-maximal concentration, the half-time is the assay time (15 min) and the first-order rate constant is 7.7 × 10^−4 s^−1. […]
Accessibility of the cysteine residues in the extracellular pathway was measured by reactivity of Y107C/C109A and S404C/C109A mutants with MTSET. […] The extent of APP^+ accumulated in the cells was determined by confocal imaging analysis in the live cells. […] The MTSET concentration causing half-maximal inactivation was determined and used to calculate the rate constant for cysteine modification, as described previously.

Another assay deals with T2, SERT Y107C/C109A (Rattus norvegicus, UniProt P31652, C109A/Y107C).
T2 construct: expressed in transfected cells
The assay is described as above. To be noted: Y107C/C109A. On the procedure:
(§1) Figure 3 Reactivity of the extracellular cysteine mutants with MTSET. (A) MTSET concentration-dependent inhibition of APP^+ uptake. The cells stably expressing C109A, Y107C/C109C, or S404C/C109A were incubated for 15 min with indicated concentrations of MTSET. The MTSET concentration giving half-maximal inhibition of APP^+ accumulation in the cells was used to calculate inactivation rate constants as plotted in (B). […] Representative images of APP^+ uptake by C109A, Y107C/C109A, or S404C/C109A under various MTSET concentrations were shown in Supplemental Figure S1. […] (B) Rate constants of MTSET inhibition of APP^+ uptake. At the half-maximal concentration, the half-time is the assay time (15 min) and the first-order rate constant is 7.7 × 10^−4 s^−1. This rate constant was divided by the half maximal MTSET concentration from (A) to obtain the pseudo first-order modification rate constant. Error bars represent SEM of three experiments.
(A) MTSET concentration-dependent inhibition of APP^+ uptake. […] After washing to remove excess MTSET and ligands, APP^+ uptake was measured as described under “Materials and Methods”. […] (B) Rate constants of MTSET inhibition of APP^+ uptake. The IC50 values of MTSET inhibition were used to calculate rate constants as described under “Materials and Methods”. Error bars represent SEM from three experiments.
(§2) The cells stably expressing Y107C/C109A or S404C/C109A were preincubated with indicated ligands and MTSET at a concentration of 0.01 mM for Y107C/C109A or 0.002 mM for S404C/C109A at 22 °C for 15 min, respectively. At the end of this incubation, cells were washed free of MTSET and ligands into KRH buffer containing NaCl and APP^+. APP^+ uptake was measured as described under “Materials and Methods”. Error bars represent SEM from three experiments. Asterisks and hashtags indicate statistically significant changes (p < 0.05) in the accumulated APP^+ fluorescence compared with the corresponding control (MTSET alone).
The cells stably expressing Y107C/C109A were treated at 22 °C for 15 min with indicated concentrations of MTSET in the absence or presence of 10 μM vilazodone. After washing to remove excess MTSET and vilazodone, APP^+ uptake was measured as described under “Materials and Methods”. […] The IC50 values of MTSET inhibition were used to calculate rate constants as described under “Materials and Method”. Error bars represent SEM from three experiments. […] After washing to remove excess MTSEA and vilazodone, ASP^+ binding was measured as described under “Materials and Methods”. […] The IC50 values of MTSEA inhibition of ASP^+ binding were converted to rate constants.

The next assay concerns the target T3, SERT S277C/X5C (Rattus norvegicus, UniProt P31652, C109A/C15A/C21A/C357I/C622A/S277C).
T3 construct: expressed in transfected cells
In words: MTS reagent inhibition of ASP+ binding in digitonin-permeabilized cells (cytoplasmic pathway cysteine accessibility). To be noted: S277C/X5C, 25 μg/mL digitonin. The procedure: After 3 × rapid washing with KRH buffer, APP^+ or ASP^+ accumulation was measured as described under “Materials and Methods”. […] These representative images were parallelly acquired from one experiment. […] After 3 × washing, ASP^+ binding to the cell membrane was measured as described under “Materials and Methods”. […] (D) The effects of MTSET on ASP^+ binding of S277C/X5C and X5C. […] After 3 × rapid washing, ASP^+ binding was measured as described under “Materials and Methods”.
After washing to remove excess MTSEA and ligands, ASP^+ binding was measured as described under “Materials and Methods”. […] The IC50 values of MTSEA inhibition of ASP^+ binding were converted to rate constants.
The cells stably expressing Y107C/C109A were treated at 22 °C for 15 min with indicated concentrations of MTSET in the absence or presence of 10 μM vilazodone. After washing to remove excess MTSET and vilazodone, APP^+ uptake was measured as described under “Materials and Methods”. […] The IC50 values of MTSET inhibition were used to calculate rate constants as described under “Materials and Method”. Error bars represent SEM from three experiments. […] After washing to remove excess MTSEA and vilazodone, ASP^+ binding was measured as described under “Materials and Methods”. […] The IC50 values of MTSEA inhibition of ASP^+ binding were converted to rate constants. […]
For cytoplasmic pathway accessibility, measurements were performed with the cells stably expressing S277C/X5C. […] The cells, then, were washed free of unreacted MTSEA and ligands, ASP^+ binding was measured by adding 500 μL KRH buffer containing 10 μM ASP^+ and incubating at 22 °C for 5 min. Excess ASP^+ was removed by 3 × rapid washing with KRH buffer and ASP^+ fluorescence retained in the cell membrane was measured by confocal imaging analysis in the permeabilized cells. […] The MTSEA IC50 value was determined and used to calculate the rate constant for S277C/X5C modification.
On the technique in general: Formazan colour is commonly taken as a measure of viable cells.

Another assay concerns the target T4, SERT S404C/C109A (Rattus norvegicus, UniProt P31652, C109A/S404C).
T4 construct: expressed in transfected cells
In words: MTSET inhibition of APP+ uptake in live cells (extracellular pathway cysteine accessibility). To be noted: for IC50: S404C/C109A. On the procedure:
as §1, §2
Accessibility of the cysteine residues in the extracellular pathway was measured by reactivity of Y107C/C109A and S404C/C109A mutants with MTSET. The cells stably expressing Y107C/C109A or S404C/C109A were incubated with MTSET over a range of concentrations in HEPES buffer containing indicated ligands or ions at 22 °C for 15 min. After excess MTSET and ligands were removed by rapid 3 × washing with the same buffer, the cells were then incubated with APP^+ at a final concentration of 2 μM in KRH buffer at 22 °C for another 5 min. The extent of APP^+ accumulated in the cells was determined by confocal imaging analysis in the live cells. To measure the effects of antidepressants, substrate 5-HT, or other ligands such as 5-HTP or tryptophan, where added, was present at 10 μM. To measure the effects of ions, 150 mM […] (NMDG) gluconate, and NMDG chloride, sodium isethionate, or NaCl was used as indicated. These measurements of reactivity depend on the ability of MTSET to inactivate APP^+ transport activity by an allosteric mechanism. The MTSET concentration causing half-maximal inactivation was determined and used to calculate the rate constant for cysteine modification, as described previously.

Where [1] appears, read: 15 min incubation with MTSET, read-out: half-maximal MTSET concentration for inhibition of APP+ accumulation.
The mark [2] stands for this setting: constant concentration used in simplified assay, read-out: MTSET IC50 value (APP+ uptake inhibition).

Read-outs that look alike come from different tables or passages of the source. Bounds are passed on as bounds.

Regarding `C[N+](C)(C)CCSS(C)(=O)=O.[Br-]` [MTSET, 2-(Trimethylammonium) ethyl methanethiosulfonate bromide], the IC50 was greater than 1000 µM on SERT C109A (C109A, 15 min incubation with MTSET, read-out: half-maximal MTSET concentration for inhibition of APP+ accumulation); 11 ± 6 µM at SERT Y107C/C109A (setting [1]); 10 µM at SERT Y107C/C109A (setting [2]); 2.5 ± 0.8 µM on SERT S404C/C109A (setting [1]); 2 µM on SERT S404C/C109A (setting [2]). The “effect on transport activity (APP+ uptake)” value on SERT C109A (background construct C109A, MTSET 0.1 μM to 1 mM) is on record as “little effect”. At SERT S277C/X5C, the “accessibility of Cys277 to MTSET” value was “not accessible”. Further, the “reactivity with MTSET of S404C/C109A relative to Y107C/C109A (faster by)” value on SERT S404C/C109A (pseudo first-order rate constants) is 4-5 fold.

The values above are taken from paper PMC9503009, “Determining Ligand and Ion-Induced Conformational Changes in Serotonin Transporter with Its Fluorescent Substrates” (International Journal of Molecular Sciences, 2022).
